Measured values from US8889411B2, “Modulation of stem and progenitor cell differentiation, assays, and uses thereof” (Anthrogenesis Corporation, priority 2002, dated 2014).

Tested on: human cord blood CD45+ cells
Assay: Flow cytograms of cord blood CD45+ cells cultured 14 days with IL3, IL6, G-CSF, Epo and KL
Format: cell-based
Conditions: 5 μg/ml
Method: FIGS. 9(A-F). Flow cytograms. […] Cord blood CD45+ cells were cultured for 14 days with cytokines IL3, IL6, G-CSF, Epo and KL. Percentages indicated on each cytogram indicate the percentage of the cell population expressing a particular combination of markers. A. Control, immunoglobulin (Ig). B. Control, no compound added. C. DMSO (5 μg/ml). D. Thal (5 μg/ml). E. ACTIMID™ (5 μg/ml). F. REVIMID™ (5 μg/ml). X-axis: relative intensity of CD38 (FL1-H) staining. Y-axis: relative intensity of CD19 (FL2-H) staining. See Section 6.3 for details.
FIGS. 10(A-F). Flow cytograms. […] Cord blood CD45+ cells were cultured for 14 days with cytokines IL3, IL6, G-CSF, Epo and KL. Percentages indicated on each cytogram indicate the percentage of the cell population expressing a particular combination of markers. A. Control, immunoglobulin (Ig). B. Control, no compound added. C. DMSO (5 μg/ml). D. Thal (5 μg/ml). E. ACTIMID™ (5 μg/ml). F. REVIMID™ (5 μg/ml). X-axis: relative intensity of CXCR5 (FL1-H) staining. Y-axis: relative intensity of CD34 (FL2-H) staining. See Section 6.3 for details.

SMILES: Nc1cccc2c1C(=O)N(C1CCC(=O)NC1=O)C2=O (centres unmarked) [ACTIMID™, 4-(Amino)-2-(2,6-dioxo(3-piperidyl))-isoindoline-1,3-dione]
- differentiation into B cells (CD19/CD38 staining) (FIG. 9): minor suppressive effects
- repression of CXCR5 produced by exposure to DMSO (FIG. 10): overcomes the repression
